Our source for the inhibition values is patent US11541132B2, “Radiolabeled compounds” (Hoffmann-La Roche Inc., priority 2017, dated 2023).

Test [1] addresses T1, native aSyn aggregates in A30P transgenic mouse brain sections (Homo sapiens, UniProt P37840, A30P).
T1 construct: from tissue; host or cells: brain sections (midbrain and pons as ROI) of A30P transgenic mice, line B6.D2-Tg(Thy1-SNCA*30P)31Pjk
Briefly: aSyn in vitro displacement assay ([3H]Example-3 autoradiography). The settings on record: 3 nM [3H]Example-3, A30P transgenic mouse brain sections; for inhibition at 1 µM: 1 μM compound, read-out: PCT_INHIB A30P @ 1 μM (% displacement of [3H]Example-3). It counts as binding, mutant human aSyn gene).

For test [2], the target named is T2, native Aβ aggregates in human AD brain tissue sections (Homo sapiens, UniProt P05067).
T2 construct: native Aβ aggregates in human AD brain tissue samples; from tissue; host or cells: human AD brain tissue sections
The test can be described thus: Aβ in vitro displacement assay (selectivity counterscreen, [3H]Example 3 autoradiography). It counts as binding. The settings on record: 3 nM [3H]Example 3, human AD brain sections; for inhibition at 1 µM: 1 μM compound, read-out: sel. counterscreen PCT_INHIB AD @ 1 μM (% displacement of [3H]Example 3). For orientation: A counterscreen serves to expose hits that act by an unwanted route or on another target.

T2 sequence (P05067 672-713 limits assumed): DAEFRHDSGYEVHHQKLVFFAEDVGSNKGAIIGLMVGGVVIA

As to `COc1ccc(C(=O)Nc2ccc(N3CCN(c4ccc(F)cn4)CC3)cc2)cc1` [Example 141, N-(4-(4-(5-Fluoropyridin-2-yl)piperazin-1-yl)phenyl)-4-methoxybenzamide], the inhibition at 1 µM in test [1] was 96%; in test [2], 94%.

With `COc1ccc(C(=O)Nc2cnc(N3CCN(c4ccccn4)CC3)nc2)c(F)c1` [Example 60, 2-Fluoro-4-methoxy-N-(2-(4-(pyridin-2-yl)piperazin-1-yl)pyrimidin-5-yl)benzamide], the inhibition at 1 µM in test [1] stood at 85%; in test [2], 96%.

In the case of `COc1ccc(C(=O)Nc2ccc(N3CCN(c4nccs4)CC3)cc2)c(F)c1` [Example 18, 2-Fluoro-4-methoxy-N-[4-[4-(1,3-thiazol-2-yl)piperazin-1-yl]phenyl]benzamide], the inhibition at 1 µM in test [1] was determined as 95%; in test [2], 99%.

In the case of `COc1ccc(C(=O)Nc2ccc(N3C[C@H]4CN(c5ccccn5)C[C@@H]4C3)cc2)cc1` [Example 132, 4-Methoxy-N-(4-((3aS,6aS)-5-(pyridin-2-yl)hexahydropyrrolo[3,4-c]pyrrol-2(1H)-yl)phenyl)benzamide], the inhibition at 1 µM in test [1] worked out at 82%; in test [2], 20%.

As for `COc1ccc(C(=O)Nc2ccc(N3CCN(c4nccs4)CC3)cc2)cc1` [Example 13, 4-Methoxy-N-[4-[4-(1,3-thiazol-2-yl)piperazin-1-yl]phenyl]benzamide], the inhibition at 1 µM in test [1] stood at 90%; in test [2], 103%.

As to `CN(C)c1ccc(C(=O)Nc2ccc(N3CCN(c4nccs4)CC3)cc2)cc1` [Example 20, 4-(Dimethylamino)-N-[4-[4-(1,3-thiazol-2-yl)piperazin-1-yl]phenyl]benzamide], the inhibition at 1 µM in test [1] was found to be 90%; in test [2] it was 103%.

With `COc1ccc(C(=O)Nc2ccc(N3CCN(c4cccnc4OC)CC3)cc2)cc1` [Example 67, 4-Methoxy-N-{4-[4-(2-methoxypyridin-3-yl)piperazin-1-yl]phenyl}benzamide], the inhibition at 1 µM in test [1] turned out to be 94%; in test [2], 88%.

In the case of `O=C(Nc1ccc(N2CCN(c3ccccn3)CC2)nc1)c1ccc(N2CCOCC2)cc1` [Example 32, 4-Morpholino-N-[6-[4-(2-pyridyl)piperazin-1-yl]-3-pyridyl]benzamide], the inhibition at 1 µM amounted to 87% in test [1] and 88% in test [2].

For `COc1ccc(C(=O)Nc2ccc(N3CCN(c4ccc(C#N)cc4OC)CC3)cc2)cc1` [Example 139, N-(4-(4-(4-Cyano-2-methoxyphenyl)piperazin-1-yl)phenyl)-4-methoxybenzamide], the inhibition at 1 µM in test [1] and in test [2] was 94% each time.

Regarding `COc1ccc(C(=O)Nc2ccc(N3CCN(c4ccncc4C)CC3)cc2)cc1` [Example 83, Acetic acid; 4-Methoxy-N-[4-[4-(3-methyl-4-pyridyl)piperazin-1-yl]phenyl]benzamide], the figures for the inhibition at 1 µM in test [1] and in test [2] were 86% and 95%, respectively.

Consider `Cc1ccc(C(=O)Nc2cnc(N3CCN(c4ccccn4)CC3)nc2)nc1` [Example 75, 5-Methyl-N-(2-(4-(pyridin-2-yl)piperazin-1-yl)pyrimidin-5-yl)picolinamide], for which the inhibition at 1 µM in test [1] and in test [2] was 95% throughout.

For the compound `COc1ccc(C(=O)Nc2ccc(N3CCN(c4cccc(C#N)n4)CC3)cc2)cc1` [Example 100, N-[4-[4-(6-Cyano-2-pyridyl)piperazin-1-yl]phenyl]-4-methoxy-benzamide], the inhibition at 1 µM in test [1] turned out to be 86%; in test [2], 85%.

As for `COc1ccc(C(=O)Nc2ccc(N3CCN(c4ccc(C#N)cc4F)CC3)cc2)cc1` [Example 145, N-(4-(4-(4-Cyano-2-fluorophenyl)piperazin-1-yl)phenyl)-4-methoxybenzamide], the inhibition at 1 µM worked out at 98% in test [1] and 97% in test [2].

Consider `COc1ccc(C(=O)Nc2cnc(N3CCN(c4ccc(C#N)cn4)CC3)nc2)cc1` [Example 98, N-(2-(4-(5-Cyanopyridin-2-yl)piperazin-1-yl)pyrimidin-5-yl)-4-methoxybenzamide], for which the inhibition at 1 µM in test [1] and in test [2] was 86% in each case.

In the case of `C#CCOc1ccc(C(=O)Nc2ccc(N3CCN(c4ccccn4)CC3)cc2)cc1` [Example 177, 4-Prop-2-ynoxy-N-[4-[4-(2-pyridyl)piperazin-1-yl]phenyl]benzamide], the inhibition at 3 µM in test [1] (3 μM compound, read-out: PCT_INHIB A30P @ 3 μM) is 96%; in test [2] (3 μM compound, read-out: sel. counterscreen PCT_INHIB AD @ 3 μM), 97%.

Regarding `COc1ccc(C(=O)Nc2ccc(N3CCN(c4ccc(C#N)cc4)CC3)cn2)cc1` [Example 96, N-(5-(4-(4-Cyanophenyl)piperazin-1-yl)pyridin-2-yl)-4-methoxybenzamide], the inhibition at 1 µM in test [1] came out at 84%; in test [2], 66%.

Consider `COc1ccc(C(=O)Nc2ccc(N3CCN(c4ccc(C#N)cn4)CC3)cn2)cc1` [Example 95, N-(5-(4-(5-Cyanopyridin-2-yl)piperazin-1-yl)pyridin-2-yl)-4-methoxybenzamide], for which the results for the inhibition at 1 µM in test [1] and in test [2] were 83% and 95%, respectively.

Take `O=C(Nc1ccc(N2CCN(c3ccccn3)CC2)cc1)c1ccc(OCCF)cc1` [Example 118, 4-(2-Fluoroethoxy)-N-[4-[4-(2-pyridyl)piperazin-1-yl]phenyl]benzamide]: the inhibition at 1 µM stood at 88% in test [1] and 92% in test [2].

Regarding `COc1ccc(C(=O)Nc2ccc(N3CCN(c4ccc(C#N)cn4)CC3)cc2)nc1` [Example 162, N-(4-(4-(5-Cyanopyridin-2-yl)piperazin-1-yl)phenyl)-5-methoxypicolinamide], the inhibition at 1 µM in test [1] was 84%; in test [2], 78%.

For the compound `CN(C)c1ccc(C(=O)Nc2ccc(N3CCN(c4ccccn4)CC3)cc2)cc1` [Example 7, 4-(Dimethylamino)-N-(4-(4-(pyridin-2-yl)piperazin-1-yl)phenyl)benzamide], the inhibition at 1 µM in test [1] amounted to 90%; in test [2] it was 108%.

In the case of `CN(C)c1ccc(C(=O)Nc2ccc(N3CCN(c4ccccn4)CC3)nc2)cc1` [Example 31, 4-(Dimethylamino)-N-[6-[4-(2-pyridyl)piperazin-1-yl]-3-pyridyl]benzamide], the results for the inhibition at 1 µM in test [1] and in test [2] were 90% and 98%, respectively.

As to `COc1ccc(C(=O)Nc2ccc(N3CCN(c4ccc(N(C)C)cn4)CC3)cc2)cc1` [Example 142, N-(4-(4-(5-(Dimethylamino)pyridin-2-yl)piperazin-1-yl)phenyl)-4-methoxybenzamide], the inhibition at 1 µM in test [1] and in test [2] was 91% in each case.

As for `COc1ccc(C(=O)Nc2cnc(N3CCN(c4ccccn4)CC3)nc2)nc1` [Example 79, 5-Methoxy-N-(2-(4-(pyridin-2-yl)piperazin-1-yl)pyrimidin-5-yl)picolinamide], the values for the inhibition at 1 µM in test [1] and in test [2] were 95% and 93%, respectively.

Turning to `CN(C)c1ccc(C(=O)Nc2cnc(N3CCN(c4ccccn4)CC3)nc2)cc1` [Example 62, 4-(Dimethylamino)-N-(2-(4-(pyridin-2-yl)piperazin-1-yl)pyrimidin-5-yl)benzamide], the figures for the inhibition at 1 µM in test [1] and in test [2] were 89% and 97%, respectively.
